The results in this text go back to ChEMBL document CHEMBL5376011, “Discovery of Anti-Hypercholesterolemia Agents Targeting LXRα from Marine Microorganism-Derived Natural Products” (J Nat Prod, 2024).

Activity calls are given as the source filed them. No cut-off for these calls is given here.

Common to all, as to type: functional, organism-based
What all share (details): dose 300.0 µg/kg, time 15.0 day

In experiment [1] the test system is Mus musculus. The experiment in a line: Antihypercholesterolemic activity against high cholesterol diet induced C57BL/6J mouse assessed as reduction in serum alanine aminotransferase level at 300 microg/kg, ip administered every 2 days for 15 days.
Experiment [2] has as its system Mus musculus. Description: Antihypercholesterolemic activity against high cholesterol diet induced C57BL/6J mouse assessed as reduction in serum aspartate aminotransferase level at 300 microg/kg, ip administered every 2 days for 15 days.
For experiment [3], the system named is Mus musculus. The experiment in a line: Antihypercholesterolemic activity against high cholesterol diet induced C57BL/6J mouse assessed as reduction in total cholesterol level in plasma at 300 microg/kg, ip administered every 2 days for 15 days.
In experiment [4] the test system is Mus musculus. Description: Antihypercholesterolemic activity against high cholesterol diet induced C57BL/6J mouse assessed as reduction in plasma low-density lipoprotein cholesterol level at 300 microg/kg, ip administered every 2 days for 15 days.
Experiment [5] concerns Mus musculus. The experiment in a line: Antihypercholesterolemic activity against high cholesterol diet induced C57BL/6J mouse assessed as reduction in hepatocyte damage at 300 microg/kg, ip administered every 2 days for 15 days.
In experiment [6] the test system is Mus musculus. The experiment in a line: Antihypercholesterolemic activity against high cholesterol diet fed LXRalpha knockout C57BL/6J mouse assessed as improvement in hepatocellular degeneration at 300 microg/kg, ip administered every 2 days for 15 days by H&E staining based analysis.
Experiment [7] has as its system Mus musculus. Description: Antihypercholesterolemic activity against high cholesterol diet fed LXRalpha knockout C57BL/6J mouse assessed as improvement in hepatic steatosis at 300 microg/kg, ip administered every 2 days for 15 days by H&E staining based analysis.
Experiment [8] has as its system Mus musculus. Description: Antihypercholesterolemic activity against high cholesterol diet fed LXRalpha knockout C57BL/6J mouse assessed as improvement in liver lipid droplet accumulation at 300 microg/kg, ip administered every 2 days for 15 days by H&E staining based analysis.
The subject of experiment [9] is Mus musculus. The experiment in a line: Antihypercholesterolemic activity against high cholesterol diet fed LXRalpha knockout C57BL/6J mouse assessed as improvement in hepatocellular degeneration at 300 microg/kg, ip administered every 2 days for 15 days by Oil red staining based analysis.
The subject of experiment [10] is Mus musculus. Description: Antihypercholesterolemic activity against high cholesterol diet fed LXRalpha knockout C57BL/6J mouse assessed as improvement in hepatic steatosis at 300 microg/kg, ip administered every 2 days for 15 days by Oil red staining based analysis.
In experiment [11] the test system is Mus musculus. Description: Antihypercholesterolemic activity against high cholesterol diet fed LXRalpha knockout C57BL/6J mouse assessed as improvement in liver lipid droplet accumulation at 300 microg/kg, ip administered every 2 days for 15 days by Oil red staining based analysis.
Experiment [12] has as its system Mus musculus. The experiment in a line: Antihypercholesterolemic activity against high cholesterol diet fed LXRalpha knockout C57BL/6J mouse assessed as reduction in serum alanine aminotransferase level at 300 microg/kg, ip administered every 2 days for 15 days.
The subject of experiment [13] is Mus musculus. The experiment in a line: Antihypercholesterolemic activity against high cholesterol diet fed LXRalpha knockout C57BL/6J mouse assessed as reduction in serum aspartate aminotransferase level at 300 microg/kg, ip administered every 2 days for 15 days.
The subject of experiment [14] is Mus musculus. The experiment in a line: Antihypercholesterolemic activity against high cholesterol diet fed LXRalpha knockout C57BL/6J mouse assessed as reduction in serum total cholesterol level at 300 microg/kg, ip administered every 2 days for 15 days.
Experiment [15] relates to Mus musculus. Description: Antihypercholesterolemic activity against high cholesterol diet fed LXRalpha knockout C57BL/6J mouse assessed as reduction in serum triglycerides level at 300 microg/kg, ip administered every 2 days for 15 days.
For experiment [16], the system named is Mus musculus. The experiment in a line: Antihypercholesterolemic activity against high cholesterol diet fed LXRalpha knockout C57BL/6J mouse assessed as reduction in serum low density lipoprotein cholesterol level at 300 microg/kg, ip administered every 2 days for 15 days.
The subject of experiment [17] is Mus musculus. Description: Antihypercholesterolemic activity against high cholesterol diet fed LXRalpha knockout C57BL/6J mouse assessed as reduction in serum high density lipoprotein cholesterol level at 300 microg/kg, ip administered every 2 days for 15 days.
Experiment [18] relates to Mus musculus. Description: Antihypercholesterolemic activity against high cholesterol diet fed LXRalpha knockout C57BL/6J mouse assessed as upregulation in ABCA1 protein level at 300 microg/kg, ip administered every 2 days for 15 days by Western blot analysis. In general terms: Immunoblotting shows a protein as a band on a membrane.
The subject of experiment [19] is Mus musculus. The experiment in a line: Antihypercholesterolemic activity against high cholesterol diet fed LXRalpha knockout C57BL/6J mouse assessed as upregulation in CYP7A1 protein level at 300 microg/kg, ip administered every 2 days for 15 days by Western blot analysis.
The subject of experiment [20] is Mus musculus. The experiment in a line: Antihypercholesterolemic activity against high cholesterol diet fed C57BL/6J mouse assessed as reduction in SREBP1 protein level at 300 microg/kg, ip administered every 2 days for 15 days by Western blot analysis.
For experiment [21], the system named is Mus musculus. Description: Antihypercholesterolemic activity against high cholesterol diet fed C57BL/6J mouse assessed as reduction in FASN protein level at 300 microg/kg, ip administered every 2 days for 15 days by Western blot analysis.
The subject of experiment [22] is Mus musculus. Description: Antihypercholesterolemic activity against high cholesterol diet fed C57BL/6J mouse assessed as reduction in SCD1 protein level at 300 microg/kg, ip administered every 2 days for 15 days by Western blot analysis.

Take `COc1ccc2c(C[C@@H]3NC(=O)[C@@H]4CCCN4C3=O)c(CC=C(C)C)[nH]c2c1` [TRYPROSTATIN A]: the outcome in experiment [1], in experiment [2], in [3], in [4], in experiment [5] and in experiment [6] was Active. The outcome in experiment [7], in experiment [8], in experiment [9], in experiment [10], in experiment [11] and in experiment [20] was Active. The outcome in experiment [21] and in experiment [22] was Active. Moreover, the result in experiment [12], in experiment [13], in [14], in [15], in experiment [16] and in experiment [17] was inactive. For the same compound, the result in [18] and in [19] was inactive.
